Test results from patent publication US11052151B2, “Diagnosis and treatment of autism spectrum disorder” (California Institute of Technology, priority 2012, dated 2021).

Tests used:
naïve wild-type mice [1] = assay: 4EPS sufficiency experiment: pre-pulse inhibition and startle; format: in vivo; conditions: 30 mg/kg i.p. daily
Experimental: PPI tests are used as a measure of sensorimotor gating and were conducted and analyzed according to the procedure described in Geyer and Swerdlow, 2001 and Smith et al., 2007. Briefly, mice were acclimated to the testing chambers of the SR-LAB startle response system (San Diego Instruments) for 5 minutes, presented with six 120 db pulses of white noise (startle stimulus) and then subjected to 14 randomized blocks of either no startle, startle stimulus only, 5 db prepulse with startle or 15 db prepulse with startle. The startle response was recorded by a piezo-electric sensor, and the percent PPI is defined as: [((startle stimulus only—5 or 15 db prepulse with startle)/startle stimulus only)*100].
(§1) Wildtype mice were injected i.p. with saline or 30 mg/kg 4EPS potassium salt daily from 3 to 6 weeks of age. A dose-response curve was generated by measuring serum 4EPS levels at various times after i.p. injection of 30 mg/kg 4EPS (FIG. 15C). Mice were behaviorally tested as described above from 6 to 9 weeks of age.

[2] = 4EPS sufficiency experiment: body weight; format: in vivo; conditions: 4EPS- versus control-treated mice
Experimental: as §1

naïve wild-type mice [3] = assay: 4EPS sufficiency experiment: marble burying; format: in vivo; conditions: 4EPS-treated versus saline-treated mice
Experimental: Marble burying is an elicited repetitive behavior in rodents analogous to those observed in autistic individuals (Silverman et al., 2010b). This test was conducted and analyzed according to methods described in Thomas et al., 2009 and Malkova et al., 2012. Mice were habituated for 10 minutes to a novel testing cage containing a 4 cm layer of chipped cedar wood bedding and then transferred to a new housing cage. 18 glass marbles (15 mm diameter) were aligned equidistantly 6×3 in the testing cage. Mice were returned to the testing cage and the number of marbles buried in 10 minutes was recorded.
as §1

naïve wild-type mice [4] = assay: 4EPS sufficiency experiment: ultrasonic vocalizations; format: in vivo; conditions: 4EPS-treated versus saline-treated mice
Experimental: Male mice produce USVs in response to female mice as an important form of communication (Portfors, 2007). Adult male USV production in response to novel female exposure was measured according to methods described in Grimsley et al., 2011; Scattoni et al., 2011; and Silverman et al., 2010a. Adult males were single-housed one week before testing and exposed for 20 minutes to an unfamiliar adult female mouse each day starting four days prior to testing in order to provide a standardized history of sexual experience and to adjust for differences in social dominance. On testing day, mice were habituated to a novel cage for 10 minutes before exposure to a novel age-matched female. USVs were recorded for 3 minutes using the UltraSoundGate microphone and audio system (Avisoft Bioacoustics). Recordings were analyzed using Avisoft's SASLab Pro software after fast Fourier transformation at 512 FFT-length and detection by a threshold-based algorithm with 5 ms hold time. Data presented reflect duration and number of calls produced in the 3 minute session.
as §1

naïve wild-type mice [5] = assay: 4EPS sufficiency experiment: open field exploration; format: in vivo
Experimental: The open field test is widely used to measure anxiety-like and locomotor behavior in rodents. Mice were placed in 50×50 cm white Plexiglas boxes for 10 minutes. An overhead video camera recorded the session, and Ethovision software (Noldus) was used to analyze the distance traveled, and the number of entries and duration of time spent in the center arena (central 17 cm square).
as §1

[6] = Serum 4EPS after i.p. injection; format: in vivo; conditions: single i.p. injection of 30 mg/kg potassium 4EPS, adult wild-type mice
Experimental: Authentic 4EPS and serum samples were analyzed by LC/MS using an Agilent […] HPLC system equipped with a photodiode array detector and interfaced to a model G1946C single quadrupole […] mass spectrometer. HPLC separations were obtained at 25° C. using an Agilent Zorbax XDB-C18 column (4.6 mm×50 mm×5 um particle size). The 4EPS ion was detected using selected ion monitoring for ions of m/z 200.9 and dwell time of 580 ms/ion, with the electrospray capillary set at 3 kV. […] For quantification of 4EPS in mouse sera, a dose-response curve was constructed by plotting the total ion count peak area for known concentrations of authentic potassium 4EPS against the analyte concentration (R^2=0.9998; FIG. 15B). Mouse serum samples were diluted four-fold with acetonitrile and centrifuged at 10,000 g at 4° C. for 3 minutes. 10 ul of supernatant was injected directly into the HPLC system.
as §1

ASD individuals = conditions: cited from earlier work
CNTNAP2 knockout mice = conditions: cited from earlier work
claudin 8 and claudin 15 [7] = assay: In vitro colon culture with IL-6, claudin expression; format: cell-based, mice; conditions: in vitro colon organ cultures
Experimental: (§2) For in vivo assays, adult mice were gavaged with 5 ug carrier-free recombinant mouse IL-6 (eBioscience) in 1.5% sodium bicarbonate. At 4 hours post-gavage, 1 cm regions of distal, medial and proximal colon were dissected, washed in HBSS and processed for qRT-PCR, as described above. For in vitro assays, adult mice were sacrificed and 1 cm regions of distal, medial and proximal colon were dissected, washed and bisected for colon culture with 0-80 ng/ml IL-6 in complete RPMI media. After 4 hours of culture, colon pieces were harvested and processed for qRT-PCR, as described above.

claudin 8 and claudin 15 [8] = assay: IL-6 oral gavage, colon claudin expression; design: species or system mice; conditions: in vivo
Experimental: as §2

[9] = 30 mg/kg i.p. daily, relative to vehicle-treated controls

CCc1ccc(OS(=O)(=O)[O-])cc1.[K+] [4-ethylphenylsulfate]
PPI (naïve wild-type mice [1]; 5 db or 15 db pre-pulse): no significant alterations | intensity of startle in response to the unconditioned primary stimulus (naïve wild-type mice [1]; 120 db pulse): increased intensity of startle | weight [2]: no difference | marble burying (naïve wild-type mice [3]): no significant differences | USV behavior (naïve wild-type mice [4]): no significant differences | anxiety-like behavior (naïve wild-type mice [5]; 30 mg/kg i.p. daily from 3 to 6 weeks of age): sufficient to induce anxiety-like behavior | distance traveled in the open field (naïve wild-type mice [5]; [9]): comparable distances | time in the center arena (naïve wild-type mice [5]; [9]): less time | number of entries into the center of the field (naïve wild-type mice [5]; 30 mg/kg i.p. daily, versus vehicle-treated mice): no difference | serum 4EPS [6]: Time-dependent increases

Cc1nc2n(c(=O)c1CCN1CCC(c3noc4cc(F)ccc34)CC1)CCCC2 [risperidone]
social behavior (ASD individuals): inability to improve social behavior | social behavior (CNTNAP2 knockout mice): inability to improve social behavior

B1: recombinant IL-6: carrier-free recombinant mouse IL-6 (eBioscience) (protein, UniProt P08505 25-211, looked up)
Interleukin-6: FPTSQVRRGDFTEDTTPNRPVYTTSQVGGLITHVLWEIVEMRKELCNGNSDCMNNDDALAENNLKLPEIQRNDGCYQTGYNQEICLLKISSGLLEYHSYLEYMKNNLKDNKKDKARVLQRDTETLIHIFNQEVKDLHKIVLPTPISNALLTDKLESQKEWLRTKTIQFILKSLEEFLKVTLRSTRQT
colon levels of claudin 8 and claudin 15 (claudin 8 and claudin 15 [7]): can modulate | colon levels of claudin 8 and claudin 15 (claudin 8 and claudin 15 [8]): can modulate
